# Source: patent US5840684A, “Glycopeptide antibiotic derivatives” (Eli Lilly and Company, priority 1995, dated 1998)
# Legend:
# Streptococcus pneumoniae = assay: mouse protection, experimentally-induced infection; type: in vivo; conditions: mice infected with Streptococcus pneumoniae, two doses
# Lactobacillus confusus = assay: agar dilution MIC, lactic acid bacteria; type: cell-based; conditions: Lactobacillus confusus, brain-heart infusion agar
# [1] = tested on: Staphylococcus aureus SA1199B; type: cell-based
# Experimental: (§1) The MIC's were determined using a standard broth micro-dilution assay.
# [2] = tested on: Staphylococcus aureus S13E; type: cell-based
# Experimental: as §1
# [3] = tested on: Leuconostoc mesenteroides; assay: agar dilution MIC, lactic acid bacteria; type: cell-based; conditions: Leuconostoc mesenteroides (mean of 4), brain-heart infusion agar
# [4] = tested on: vancomycin-resistant enterococci; assay: broth micro-dilution, mean geometric MIC; type: cell-based, Enterococcus faecium and Enterococcus faecalis; conditions: enterococci, 24-hour incubation
# Stapylococcus aureus = assay: mouse protection, experimentally-induced infection; type: in vivo; conditions: mice infected with Stapylococcus aureus, two doses
# Entercoccus faecium 2041 = assay: broth micro-dilution MIC; type: cell-based; conditions: Entercoccus faecium 2041
# Experimental: (§2) The formula I compounds have in vitro and in vivo activity against Gram-positive pathogenic bacteria. The MIC's were determined using a standard broth micro-dilution assay.
# [5] = tested on: Enterococcus gallinarum 245; assay: broth micro-dilution MIC; type: cell-based; conditions: Enterococcus gallinarum 245
# Experimental: as §2
# [6] = tested on: Streptococcus pneumoniae P1; assay: broth micro-dilution MIC; type: cell-based
# Experimental: as §2
# [7] = tested on: Staphylococcus haemolyticus 105; assay: broth micro-dilution MIC; type: cell-based
# Experimental: as §2
# [8] = tested on: Staphylococcus epidermidis 270; assay: broth micro-dilution MIC; type: cell-based
# Experimental: as §2
# [9] = tested on: Staphylococcus haemolyticus 415; assay: broth micro-dilution MIC; type: cell-based
# Experimental: as §2
# Leuconostoc lactis = assay: agar dilution MIC, lactic acid bacteria; type: cell-based; conditions: Leuconostoc lactis (mean of 2), brain-heart infusion agar
# Pediococcus pentosaceus = assay: agar dilution MIC, lactic acid bacteria; type: cell-based; conditions: Pediococcus pentosaceus (mean of 2), brain-heart infusion agar
# Pediococcus acidilacti = assay: agar dilution MIC, lactic acid bacteria; type: cell-based; conditions: Pediococcus acidilacti (mean of 10), brain-heart infusion agar
# [10] = tested on: Staphylococcus aureus SA1199; assay: broth micro-dilution MIC; type: cell-based
# Experimental: as §1
# [11] = tested on: Entercoccus faecium 180-1; assay: broth micro-dilution MIC; type: cell-based
# Experimental: as §1
# Entercoccus faecium 276 = assay: broth micro-dilution MIC; type: cell-based
# Experimental: as §1
# [12] = tested on: Staphylococcus aureus X400; assay: broth micro-dilution MIC; type: cell-based
# Experimental: as §1
# [13] = tested on: Staphylococcus aureus 446; assay: broth micro-dilution MIC; type: cell-based
# Experimental: as §1
# [14] = tested on: Streptococcus pyogenes C203; assay: broth micro-dilution MIC; type: cell-based
# Experimental: as §1
# [15] = tested on: Staphylococcus aureus 491; assay: broth micro-dilution MIC; type: cell-based
# Experimental: as §1
# [16] = tested on: Staphylococcus aureus SA1199A; assay: broth micro-dilution MIC; type: cell-based
# Experimental: as §1
# [17] = tested on: Staphylococcus aureus 447; assay: broth micro-dilution MIC; type: cell-based
# Experimental: as §1
# [18] = tested on: Staphylococcus aureus X778; assay: broth micro-dilution MIC; type: cell-based
# Experimental: as §1
# [19] = tested on: Leuconostoc pseudomesenteroides; assay: agar dilution MIC, lactic acid bacteria; type: cell-based; conditions: brain-heart infusion agar
# [20] = tested on: vancomycin-susceptible enterococci; assay: broth micro-dilution, mean geometric MIC; type: cell-based, Enterococcus faecium and Enterococcus faecalis; conditions: enterococci, 24-hour incubation
# Streptococcus pyogenes = assay: mouse protection, experimentally-induced infection; type: in vivo; conditions: mice infected with Streptococcus pyogenes, two doses
# Entercoccus faecium 180 = assay: broth micro-dilution MIC; type: cell-based; conditions: Entercoccus faecium 180
# Experimental: as §2
Structure (SMILES),ED50 (Streptococcus pneumoniae),MIC (Lactobacillus confusus),MIC [1],MIC [2],MIC [3],"mean geometric MIC, Vancomycin Resistant Strains [4]",ED50 (Stapylococcus aureus),MIC (Entercoccus faecium 2041),MIC [5],MIC [6],MIC [7],MIC [9],MIC (Leuconostoc lactis),MIC (Pediococcus pentosaceus),MIC (Pediococcus acidilacti),MIC [11],MIC (Entercoccus faecium 276),MIC [14],"mean geometric MIC, Vancomycin Sensitive Strains [20]",ED50 (Streptococcus pyogenes),also measured
"CNC(CC(C)C)C(=O)NC1C(=O)NC(CC(N)=O)C(=O)NC2C(=O)NC3C(=O)NC(C(=O)NC(C(=O)O)c4cc(O)cc(O)c4-c4cc3ccc4O)C(OC3CC(C)(N)C(O)C(C)O3)c3ccc(c(Cl)c3)Oc3cc2cc(c3OC2OC(CO)C(O)C(O)C2OC2CC(C)(NCc3ccc(-c4ccccc4)cc3)C(O)C(C)O2)Oc2ccc(cc2Cl)C1O (stereo not shown) [Compound 2, p-phenylbenzyl·A82846B]",0.025 mg/kg/2,16 µg/mL,≤ 0.06 µg/mL,≤ 0.06 µg/mL,16 µg/mL,0.044 µg/mL,0.27 mg/kg/2,0.125 µg/mL,≤ 0.06 µg/mL,≤ 0.06 µg/mL,2 µg/mL,1 µg/mL,4.0 µg/mL,11 µg/mL,5.9 µg/mL,≤ 0.06 µg/mL,0.5 µg/mL,≤ 0.06 µg/mL,0.00038 µg/mL,0.014 mg/kg/2,MIC [8]: 8 µg/mL; MIC [10]: 0.5 µg/mL; MIC [12]: 1 µg/mL; MIC [13]: ≤ 0.06 µg/mL; MIC [15]: ≤ 0.06 µg/mL; MIC [16]: ≤ 0.06 µg/mL; MIC [17]: ≤ 0.06 µg/mL; MIC [18]: ≤ 0.06 µg/mL; MIC [19]: 32 µg/mL
CNC(CC(C)C)C(=O)NC1C(=O)NC(CC(N)=O)C(=O)NC2C(=O)NC3C(=O)NC(C(=O)NC(C(=O)O)c4cc(O)cc(O)c4-c4cc3ccc4O)C(OC3CC(C)(N)C(O)C(C)O3)c3ccc(c(Cl)c3)Oc3cc2cc(c3OC2OC(CO)C(O)C(O)C2OC2CC(C)(NCc3ccc(OC(F)(F)F)cc3)C(O)C(C)O2)Oc2ccc(cc2Cl)C1O (stereo not shown) [Compound 6],0.021 mg/kg/2,16 µg/mL,–,–,9.5 µg/mL,1.2 µg/mL,0.15 mg/kg/2,≤ 0.06 µg/mL,≤ 0.06 µg/mL,≤ 0.06 µg/mL,0.5 µg/mL,0.5 µg/mL,8.0 µg/mL,8.0 µg/mL,4.3 µg/mL,≤ 0.06 µg/mL,≤ 0.06 µg/mL,≤ 0.06 µg/mL,0.14 µg/mL,0.013 mg/kg/2,MIC [13]: 0.5 µg/mL; MIC [16]: ≤ 0.06 µg/mL; MIC [17]: 0.5 µg/mL; MIC [19]: 16 µg/mL
CNC(CC(C)C)C(=O)NC1C(=O)NC(CC(N)=O)C(=O)NC2C(=O)NC3C(=O)NC(C(=O)NC(C(=O)O)c4cc(O)cc(O)c4-c4cc3ccc4O)C(OC3CC(C)(N)C(O)C(C)O3)c3ccc(c(Cl)c3)Oc3cc2cc(c3OC2OC(CO)C(O)C(O)C2OC2CC(C)(NCc3cccc4c3oc3ccccc34)C(O)C(C)O2)Oc2ccc(cc2Cl)C1O (stereo not shown) [Compound 39],< 0.031 mg/kg/2,32 µg/mL,≤ 0.06 µg/mL,≤ 0.06 µg/mL,32 µg/mL,1.2 µg/mL,0.1 mg/kg/2,≤ 0.06 µg/mL,≤ 0.06 µg/mL,≤ 0.06 µg/mL,2 µg/mL,4 µg/mL,32 µg/mL,32 µg/mL,26 µg/mL,≤ 0.06 µg/mL,≤ 0.06 µg/mL,≤ 0.06 µg/mL,0.09 µg/mL,0.045 mg/kg/2,MIC (Entercoccus faecium 180): 0.5 µg/mL; MIC [10]: ≤ 0.06 µg/mL; MIC [12]: ≤ 0.06 µg/mL; MIC [18]: ≤ 0.06 µg/mL
CNC(CC(C)C)C(=O)NC1C(=O)NC(CC(N)=O)C(=O)NC2C(=O)NC3C(=O)NC(C(=O)NC(C(=O)O)c4cc(O)cc(O)c4-c4cc3ccc4O)C(OC3CC(C)(N)C(O)C(C)O3)c3ccc(c(Cl)c3)Oc3cc2cc(c3OC2OC(CO)C(O)C(O)C2OC2CC(C)(NCc3ccc(Sc4ccccc4)cc3)C(O)C(C)O2)Oc2ccc(cc2Cl)C1O (stereo not shown) [Compound 108],0.041 mg/kg/2,16 µg/mL,2 µg/mL,1 µg/mL,10 µg/mL,0.84 µg/mL,–,≤ 0.06 µg/mL,≤ 0.06 µg/mL,≤ 0.06 µg/mL,2 µg/mL,1 µg/mL,8.0 µg/mL,23 µg/mL,12 µg/mL,≤ 0.06 µg/mL,0.5 µg/mL,≤ 0.06 µg/mL,0.04 µg/mL,0.046 mg/kg/2,MIC [10]: 2 µg/mL; MIC [12]: 2 µg/mL; MIC [13]: 2 µg/mL; MIC [16]: ≤ 0.06 µg/mL; MIC [17]: 0.5 µg/mL; MIC [19]: 32 µg/mL
